Assay results as given in ChEMBL document CHEMBL3856204, “Chiral 6-aryl-furo[2,3-d]pyrimidin-4-amines as EGFR inhibitors” (Eur J Med Chem, 2016).

Legend:
[1] = biological target: Mitogen-activated protein kinase 14 (Homo sapiens) (UniProt Q16539); assay: Inhibition of GST tagged recombinant full length human p38 alpha expressed in Escherichia coli at 500 nM by Z'-LYTE assay
[2] = biological target: Vascular endothelial growth factor receptor 3 (Homo sapiens) (UniProt P35916); assay: Inhibition of GST tagged recombinant human FLT4 cytoplasmic domain (800 to 1297 residues) expressed in baculovirus at 500 nM by Z'-LYTE assay
[3] = biological target: Ephrin type-A receptor 1 (Homo sapiens) (UniProt P21709); assay: Inhibition of GST tagged recombinant human EPHA1 cytoplasmic domain (568 to 976 residues) expressed in baculovirus at 500 nM by Z'-LYTE assay
[4] = biological target: Tyrosine-protein kinase Lyn (Homo sapiens) (UniProt P07948); assay: Inhibition of recombinant full length human N-terminal GST tagged LYN A expressed in insect cells at 500 nM by Z'-LYTE assay
[5] = biological target: Tyrosine-protein kinase CSK (Homo sapiens) (UniProt P41240); assay: Inhibition of His tagged recombinant full length human CSK expressed in Escherichia coli at 500 nM by Z'-LYTE assay
[6] = biological target: Receptor tyrosine-protein kinase erbB-2 (Homo sapiens) (UniProt P04626); assay: Inhibition of His tagged recombinant human ErbB2 cytoplasmic domain (676 to 1255 residues) expressed in baculovirus at 500 nM by Z'-LYTE assay
[7] = biological target: Mitogen-activated protein kinase 8 (Homo sapiens) (UniProt P45983); assay: Inhibition of His tagged recombinant full length human JNK1 expressed in baculovirus at 500 nM by Z'-LYTE assay
[8] = biological target: Tyrosine-protein kinase ABL1 (Homo sapiens) (UniProt P00519); assay: Inhibition of His tagged recombinant full length human ABL1 expressed in baculovirus at 500 nM by Z'-LYTE assay
[9] = biological target: Tyrosine-protein kinase Lyn (Homo sapiens) (UniProt P07948); assay: Inhibition of His tagged C-terminal recombinant full length human LYN B expressed in baculovirus at 500 nM by Z'-LYTE assay
[10] = biological target: Serine/threonine-protein kinase B-raf (Homo sapiens) (UniProt P15056); assay: Inhibition of GST tagged recombinant full length human BRAF expressed in baculovirus at 500 nM by Z'-LYTE assay
[11] = biological target: Tyrosine-protein kinase Blk (Homo sapiens) (UniProt P51451); assay: Inhibition of His tagged recombinant full length human BLK expressed in baculovirus at 500 nM by Z'-LYTE assay
[12] = biological target: Receptor tyrosine-protein kinase erbB-4 (Homo sapiens) (UniProt Q15303); assay: Inhibition of GST tagged recombinant human ERBB4 cytoplasmic domain (708 to 993 residues) expressed in baculovirus at 500 nM by Z'-LYTE assay
[13] = biological target: Epidermal growth factor receptor (Homo sapiens, UniProt P00533); assay: Inhibition of recombinant human GST-tagged EGFR cytoplasmic domain (668 to 1210 residues) expressed in baculovirus by Z'-LYTE assay
[14] = biological target: Testis-specific serine/threonine-protein kinase 2 (Homo sapiens) (UniProt Q96PF2); assay: Inhibition of His tagged recombinant full length human STK22B expressed in baculovirus at 500 nM by Z'-LYTE assay
[15] = biological target: Tyrosine-protein kinase Fyn (Homo sapiens) (UniProt P06241); assay: Inhibition of recombinant full length human C-terminal His-tagged FYN expressed in baculovirus at 500 nM by Z'-LYTE assay
[16] = biological target: Mitogen-activated protein kinase 1 (Homo sapiens) (UniProt P28482); assay: Inhibition of GST tagged recombinant full length human ERK2 expressed in Escherichia coli at 500 nM by Z'-LYTE assay
[17] = biological target: Proto-oncogene tyrosine-protein kinase Src (Homo sapiens) (UniProt P12931); assay: Inhibition of recombinant full length human C-terminal His-tagged SRC expressed in baculovirus at 500 nM by Z'-LYTE assay
[18] = biological target: Tyrosine-protein kinase FRK (Homo sapiens) (UniProt P42685); assay: Inhibition of GST tagged recombinant full length human FRK expressed in baculovirus at 500 nM by Z'-LYTE assay
[19] = biological target: Protein kinase C alpha type (Homo sapiens) (UniProt P17252); assay: Inhibition of recombinant full length human PRKCA expressed in baculovirus at 500 nM by Z'-LYTE assay
[20] = biological target: Serine/threonine-protein kinase pim-2 (Homo sapiens) (UniProt Q9P1W9); assay: Inhibition of GST tagged recombinant full length human PIM2 expressed in baculovirus at 500 nM by Z'-LYTE assay
[21] = biological target: Tyrosine-protein kinase JAK2 (Homo sapiens) (UniProt O60674); assay: Inhibition of GST tagged recombinant human JAK2 (809 to 1153 + 9 residues) expressed in baculovirus at 500 nM by Z'-LYTE assay

Tyrosine-protein kinase Lyn (Homo sapiens), sequence (P07948 2-512 limits assumed): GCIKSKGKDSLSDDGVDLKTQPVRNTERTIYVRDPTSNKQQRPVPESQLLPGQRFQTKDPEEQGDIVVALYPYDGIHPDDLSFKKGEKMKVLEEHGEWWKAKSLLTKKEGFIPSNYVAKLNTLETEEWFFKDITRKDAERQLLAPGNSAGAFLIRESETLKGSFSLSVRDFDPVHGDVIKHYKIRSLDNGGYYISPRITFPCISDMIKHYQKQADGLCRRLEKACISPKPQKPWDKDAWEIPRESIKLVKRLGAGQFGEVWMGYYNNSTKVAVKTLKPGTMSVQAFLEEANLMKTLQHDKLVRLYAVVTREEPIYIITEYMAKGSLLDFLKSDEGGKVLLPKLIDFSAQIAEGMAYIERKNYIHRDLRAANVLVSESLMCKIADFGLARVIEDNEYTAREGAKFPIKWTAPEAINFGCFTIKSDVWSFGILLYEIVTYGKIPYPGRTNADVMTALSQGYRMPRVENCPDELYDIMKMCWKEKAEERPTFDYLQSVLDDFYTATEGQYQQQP
Vascular endothelial growth factor receptor 3 (Homo sapiens), sequence (P35916 whole entry, the tested form may be a part): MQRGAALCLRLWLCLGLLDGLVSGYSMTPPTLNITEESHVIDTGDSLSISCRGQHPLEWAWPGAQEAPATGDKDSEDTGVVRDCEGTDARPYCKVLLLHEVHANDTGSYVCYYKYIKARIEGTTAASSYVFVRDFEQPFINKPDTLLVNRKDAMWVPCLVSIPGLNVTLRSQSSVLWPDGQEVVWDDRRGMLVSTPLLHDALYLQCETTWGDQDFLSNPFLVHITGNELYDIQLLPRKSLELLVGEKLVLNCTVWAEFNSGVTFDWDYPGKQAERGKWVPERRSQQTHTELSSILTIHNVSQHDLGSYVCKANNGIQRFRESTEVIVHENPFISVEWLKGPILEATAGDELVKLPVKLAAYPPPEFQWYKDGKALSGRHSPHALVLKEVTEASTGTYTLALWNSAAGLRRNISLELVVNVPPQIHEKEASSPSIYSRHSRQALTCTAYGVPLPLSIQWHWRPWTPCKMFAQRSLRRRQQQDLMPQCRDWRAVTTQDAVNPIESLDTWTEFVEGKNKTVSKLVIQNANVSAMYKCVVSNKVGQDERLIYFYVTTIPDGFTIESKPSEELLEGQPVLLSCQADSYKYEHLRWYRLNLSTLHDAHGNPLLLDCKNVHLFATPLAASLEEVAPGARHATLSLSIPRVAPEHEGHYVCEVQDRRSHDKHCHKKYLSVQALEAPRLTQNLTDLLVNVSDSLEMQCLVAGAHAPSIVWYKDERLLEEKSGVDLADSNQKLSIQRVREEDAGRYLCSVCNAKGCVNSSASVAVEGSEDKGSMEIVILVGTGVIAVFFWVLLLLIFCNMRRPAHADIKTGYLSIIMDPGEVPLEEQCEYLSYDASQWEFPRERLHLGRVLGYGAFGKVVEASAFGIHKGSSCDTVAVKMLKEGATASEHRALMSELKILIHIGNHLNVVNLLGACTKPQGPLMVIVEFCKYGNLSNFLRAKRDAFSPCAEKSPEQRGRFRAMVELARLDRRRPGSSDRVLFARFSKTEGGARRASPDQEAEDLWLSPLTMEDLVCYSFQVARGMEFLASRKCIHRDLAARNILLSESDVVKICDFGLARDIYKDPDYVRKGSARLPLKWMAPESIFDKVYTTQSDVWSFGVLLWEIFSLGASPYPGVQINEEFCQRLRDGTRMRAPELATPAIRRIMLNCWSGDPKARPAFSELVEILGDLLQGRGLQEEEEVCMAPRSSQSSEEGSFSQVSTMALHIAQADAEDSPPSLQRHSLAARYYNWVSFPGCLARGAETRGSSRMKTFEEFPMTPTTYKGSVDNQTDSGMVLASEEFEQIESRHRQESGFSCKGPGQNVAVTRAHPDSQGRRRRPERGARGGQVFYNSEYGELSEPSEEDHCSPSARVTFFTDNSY
Mitogen-activated protein kinase 1 (Homo sapiens), sequence (P28482 whole entry): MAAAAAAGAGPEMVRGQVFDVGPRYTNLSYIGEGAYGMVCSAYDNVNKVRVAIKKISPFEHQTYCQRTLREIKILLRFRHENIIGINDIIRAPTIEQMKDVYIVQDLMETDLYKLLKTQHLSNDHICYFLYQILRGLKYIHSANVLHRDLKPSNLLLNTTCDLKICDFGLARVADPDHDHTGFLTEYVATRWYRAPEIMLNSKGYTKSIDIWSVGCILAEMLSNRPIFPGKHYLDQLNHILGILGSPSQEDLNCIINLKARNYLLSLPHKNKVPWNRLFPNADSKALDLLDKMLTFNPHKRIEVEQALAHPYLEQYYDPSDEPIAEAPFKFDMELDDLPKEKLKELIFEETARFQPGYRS
Tyrosine-protein kinase Blk (Homo sapiens), sequence (P51451 2-505 limits assumed): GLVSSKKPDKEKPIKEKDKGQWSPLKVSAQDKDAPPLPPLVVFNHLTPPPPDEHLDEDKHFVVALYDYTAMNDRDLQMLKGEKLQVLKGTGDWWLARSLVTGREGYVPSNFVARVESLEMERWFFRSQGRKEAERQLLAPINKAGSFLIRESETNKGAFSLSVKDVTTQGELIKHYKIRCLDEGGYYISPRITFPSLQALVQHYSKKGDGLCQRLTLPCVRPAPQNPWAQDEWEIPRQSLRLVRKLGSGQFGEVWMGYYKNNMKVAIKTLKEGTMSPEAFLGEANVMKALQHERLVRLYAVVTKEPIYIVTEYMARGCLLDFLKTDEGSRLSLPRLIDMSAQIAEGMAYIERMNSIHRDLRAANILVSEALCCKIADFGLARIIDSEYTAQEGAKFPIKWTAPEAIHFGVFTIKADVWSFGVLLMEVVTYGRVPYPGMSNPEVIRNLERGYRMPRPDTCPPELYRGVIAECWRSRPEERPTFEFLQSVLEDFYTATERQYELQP
Receptor tyrosine-protein kinase erbB-2 (Homo sapiens), sequence (P04626 whole entry, the tested form may be a part): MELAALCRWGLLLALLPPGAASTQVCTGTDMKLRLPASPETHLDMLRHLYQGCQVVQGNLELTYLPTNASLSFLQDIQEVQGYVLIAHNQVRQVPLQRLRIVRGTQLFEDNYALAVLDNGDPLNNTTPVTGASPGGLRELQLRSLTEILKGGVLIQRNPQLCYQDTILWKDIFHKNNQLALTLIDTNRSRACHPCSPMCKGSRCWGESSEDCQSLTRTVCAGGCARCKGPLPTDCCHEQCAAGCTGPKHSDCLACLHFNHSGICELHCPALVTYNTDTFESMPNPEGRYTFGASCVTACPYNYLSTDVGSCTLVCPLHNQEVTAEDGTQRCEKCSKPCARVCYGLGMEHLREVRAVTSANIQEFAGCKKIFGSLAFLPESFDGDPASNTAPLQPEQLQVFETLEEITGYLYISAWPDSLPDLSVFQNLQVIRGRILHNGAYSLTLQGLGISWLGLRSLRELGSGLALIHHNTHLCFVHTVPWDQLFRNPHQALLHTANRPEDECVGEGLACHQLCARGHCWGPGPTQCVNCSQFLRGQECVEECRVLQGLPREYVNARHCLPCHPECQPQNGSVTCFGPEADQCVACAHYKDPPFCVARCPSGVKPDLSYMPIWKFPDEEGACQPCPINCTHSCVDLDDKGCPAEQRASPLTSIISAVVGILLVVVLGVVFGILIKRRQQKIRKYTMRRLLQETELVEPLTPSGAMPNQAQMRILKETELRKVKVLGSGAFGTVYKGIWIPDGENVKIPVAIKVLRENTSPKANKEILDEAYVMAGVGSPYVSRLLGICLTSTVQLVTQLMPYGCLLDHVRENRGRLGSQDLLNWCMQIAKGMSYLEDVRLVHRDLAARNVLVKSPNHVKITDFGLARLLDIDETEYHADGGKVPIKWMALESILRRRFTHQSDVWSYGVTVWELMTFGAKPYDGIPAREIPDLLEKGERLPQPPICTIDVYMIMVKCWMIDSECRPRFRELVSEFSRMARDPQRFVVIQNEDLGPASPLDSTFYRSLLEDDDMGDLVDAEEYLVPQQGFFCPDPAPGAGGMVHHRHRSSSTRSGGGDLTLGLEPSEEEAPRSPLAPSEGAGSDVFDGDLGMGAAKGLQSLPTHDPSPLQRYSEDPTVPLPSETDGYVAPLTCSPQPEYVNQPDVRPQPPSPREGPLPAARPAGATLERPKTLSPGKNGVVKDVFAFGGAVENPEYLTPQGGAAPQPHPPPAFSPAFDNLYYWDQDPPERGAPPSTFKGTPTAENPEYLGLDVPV
Proto-oncogene tyrosine-protein kinase Src (Homo sapiens), sequence (P12931 2-536 limits assumed): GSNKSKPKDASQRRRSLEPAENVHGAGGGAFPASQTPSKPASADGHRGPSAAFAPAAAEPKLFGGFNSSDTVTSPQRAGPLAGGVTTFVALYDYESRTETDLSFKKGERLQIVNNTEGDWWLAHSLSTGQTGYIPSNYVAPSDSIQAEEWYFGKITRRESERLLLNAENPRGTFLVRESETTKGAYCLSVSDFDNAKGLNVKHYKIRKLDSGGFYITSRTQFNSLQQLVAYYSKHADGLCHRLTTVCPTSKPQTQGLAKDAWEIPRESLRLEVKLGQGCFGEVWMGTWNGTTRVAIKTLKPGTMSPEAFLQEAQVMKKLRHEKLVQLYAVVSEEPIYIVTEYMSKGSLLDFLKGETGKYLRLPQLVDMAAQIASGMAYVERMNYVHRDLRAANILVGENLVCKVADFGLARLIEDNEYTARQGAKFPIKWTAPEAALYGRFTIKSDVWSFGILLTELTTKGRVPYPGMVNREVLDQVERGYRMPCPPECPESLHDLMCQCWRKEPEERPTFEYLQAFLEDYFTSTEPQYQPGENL
Tyrosine-protein kinase Fyn (Homo sapiens), sequence (P06241 2-537 limits assumed): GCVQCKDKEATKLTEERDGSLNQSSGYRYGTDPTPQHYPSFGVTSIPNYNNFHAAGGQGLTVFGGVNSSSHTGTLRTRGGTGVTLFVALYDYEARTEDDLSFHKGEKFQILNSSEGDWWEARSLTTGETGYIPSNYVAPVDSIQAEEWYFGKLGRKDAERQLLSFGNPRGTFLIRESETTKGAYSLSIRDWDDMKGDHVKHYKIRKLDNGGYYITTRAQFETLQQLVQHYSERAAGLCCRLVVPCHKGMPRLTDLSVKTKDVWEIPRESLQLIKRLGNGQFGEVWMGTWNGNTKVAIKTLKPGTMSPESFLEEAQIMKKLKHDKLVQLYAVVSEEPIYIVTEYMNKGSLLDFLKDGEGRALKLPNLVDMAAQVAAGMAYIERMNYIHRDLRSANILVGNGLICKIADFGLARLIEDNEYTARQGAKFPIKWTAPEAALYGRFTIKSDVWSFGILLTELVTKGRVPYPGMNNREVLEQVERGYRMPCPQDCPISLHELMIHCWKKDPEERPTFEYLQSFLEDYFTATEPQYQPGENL

inhibition [1] [%] | inhibition [2] [%] | inhibition [3] [%] | inhibition [4] [%] | inhibition [5] [%] | inhibition [6] [%] | inhibition [7] [%] | inhibition [8] [%] | inhibition [9] [%] | inhibition [10] [%] | inhibition [11] [%] | inhibition [12] [%] | IC50 [13] [nM] | inhibition [14] [%] | inhibition [15] [%] | inhibition [16] [%] | inhibition [17] [%] | inhibition [18] [%] | inhibition [19] [%] | SMILES | further results
16 | 4 | 34 | 37 | 8 | 15 | 6 | 30 | 46 | 9 | 0 | 18 | 0.6 | 2 | 12 | -1 | 17 | 21 |  | C[C@@H](Nc1ncnc2oc(-c3ccc(NCCN4CCCCC4)cc3)cc12)c1ccccc1 | 
15 | 4 | 26 | 35 | 12 | 23 | 1 | 37 | 41 | 8 | 3 | 32 | 0.4 | -1 | 13 | -3 | 12 | 31 | -9 | C[C@@H](Nc1ncnc2oc(-c3ccc(NCCN(C)C)cc3)cc12)c1ccccc1 | inhibition [20]: -3%; inhibition [21]: -8%
 |  |  |  |  |  |  |  |  |  |  |  |  |  |  |  |  |  | 2 | C#Cc1cccc(Nc2ncnc3cc(OCCOC)c(OCCOC)cc23)c1 | 
